Results published in article PMC7026480, “Discovery of Multitarget-Directed Ligands Against Influenza A Virus From Compound Yizhihao Through a Predictive System for Compound-Protein Interactions” (Frontiers in Cellular and Infection Microbiology, 2020).
Like-named read-outs stand apart in the source and are kept apart here.

Columns and labels:
[1] = test system: A/HebeiXinhua/SWL1106/2017 (oseltamivir- and amantadine-resistant H1N1); test: microbe, parasite or virus in culture; assay type: cell-based, influenza A virus
[2] = test system: A/FujianXinluo/SWL2457/2014 (amantadine-resistant H1N1); test: microbe, parasite or virus in culture; assay type: cell-based; conditions: Influenza A virus, H1N1, MDCK
[3] = test system: wild-type and resistant IAV strains; test: microbe, parasite or virus in culture; assay type: cell-based, influenza A virus; conditions: for IC50: Influenza A virus, read-out: IC50, protective effects for cells infected with the resistant IAV strains (CPE)
[4] = molecular target: neuraminidase (NA) of A/HebeiXinhua/SWL1106/2017 (oseltamivir- and amantadine-resistant H1N1); assay type: biochemical, influenza A virus; conditions: read-out: IC50, NA inhibition test, A/HebeiXinhua/SWL1106/2017
[5] = molecular target: neuraminidase (NA) of A/FujianXinluo/SWL2457/2014 (amantadine-resistant H1N1); assay type: biochemical, influenza A virus; conditions: read-out: IC50, NA inhibition test, A/FujianXinluo/SWL2457/2014
[6] = Influenza A virus, H1N1, MDCK, read-out: IC50, CPE reduction, A/HebeiXinhua/SWL1106/2017, Drug administration after virus inoculation
[7] = Influenza A virus, H1N1, MDCK, read-out: IC50, CPE reduction, A/HebeiXinhua/SWL1106/2017, Pre-incubation of virus and drug
[8] = Influenza A virus, H1N1, MDCK, read-out: IC50, CPE reduction, A/HebeiXinhua/SWL1106/2017, Simultaneous action of virus and drug
[9] = Influenza A virus, H1N1, MDCK, read-out: IC50, CPE reduction, A/HebeiXinhua/SWL1106/2017, Virus inoculation after drug administration
[10] = read-out: IC50, CPE reduction, A/FujianXinluo/SWL2457/2014, Drug administration after virus inoculation
[11] = read-out: IC50, CPE reduction, A/FujianXinluo/SWL2457/2014, Pre-incubation of virus and drug
[12] = read-out: IC50, CPE reduction, A/FujianXinluo/SWL2457/2014, Simultaneous action of virus and drug
[13] = read-out: IC50, CPE reduction, A/FujianXinluo/SWL2457/2014, Virus inoculation after drug administration
[14] = read-out: IC50, dual-oseltamivir and amantadine-resistant H1N1 CPE assay, all modes except for drug administration after viral infection

Row | Structure (SMILES) | IC50 [1, 6] [µM] | IC50 [1, 7] [µM] | IC50 [1, 8] [µM] | IC50 [1, 9] [µM] | IC50 ([1]; Influenza A virus, H1N1, MDCK, read-out: IC50, dual-oseltamivir and amantadine-resistant H1N1 CPE assay, in the modes tested) [µM] | IC50 [2, 10] [µM] | IC50 [2, 11] [µM] | IC50 [2, 12] [µM] | IC50 [2, 13] [µM] | IC50 [1, 14] [µM] | IC50 [3] [µM] | IC50 [4] [µM] | IC50 [5] [µM] | inhibition of virus-induced CPE [3] | IC50, dual-oseltamivir and amantadine-resistant H1N1 CPE assay, in the modes tested [1]
1 | NC(=O)c1ncn([C@@H]2O[C@H](CO)[C@@H](O)[C@H]2O)n1 [Ribavirin, ribavirin, reference compound] | 57.9 ± 10.5 | 29.8 ± 6.4 | 36.2 ± 13.7 | 39.9 ± 9.71 | 29.8 to 57.9 | 25.9 ± 14.6 | 24.6 ± 3.1 | 26.2 ± 2.4 | 86.7 ± 9.8 |  |  |  |  |  | 
2 | O=c1c(O)c(-c2ccc(O)c(O)c2)oc2cc(O)cc(O)c12 [Quercetin] | > 100 | 6.93 ± 4.6 | 14.6 ± 1.8 | 19.1 ± 1.95 |  | 20.7 ± 14.7 | 7.73 ± 3.04 | 37.1 ± 18.2 | 86.1 ± 13.8 | < 100 | < 100 |  |  |  | 
3 | C=C(C(=O)O)[C@H]1CC[C@H](C)[C@@H]2CC(=O)C(C)=C2C1 (stereo in doubt) [Rupestonic acid] |  |  |  |  |  |  |  |  |  |  |  | > 100 | > 100 |  | 
4 | O=c1cc(-c2ccc(O)cc2)oc2cc(O)cc(O)c12 [Apigenin] | > 100 | 31.6 ± 10.3 | 35.4 ± 3.98 | 39 ± 3.82 |  | 28.1 ± 2.37 | 32.1 ± 4.13 | 40.5 ± 4 | 36.5 ± 5.79 | < 100 | < 100 |  |  |  | 
5 | C=C[C@@H]1CNC(=S)O1 [Epigoitrin] |  |  |  |  |  |  |  |  |  |  |  | > 100 | > 100 |  | 
6 | O=c1cc(-c2ccc(O)c(O)c2)oc2cc(O)cc(O)c12 [Luteolin] | > 100 | 15.2 ± 4.46 | 20.1 ± 10.6 | 47.2 ± 7.14 |  | 31.9 ± 1.99 | 1.14 ± 1.02 | 24.9 ± 9.62 | > 100 | < 100 | < 100 |  |  |  | 
7 | O=c1cc(-c2ccc(O)c(O)c2)oc2c([C@@H]3O[C@H](CO)[C@@H](O)[C@H](O)[C@H]3O)c(O)cc(O)c12 [Orientin] |  |  |  |  |  |  |  |  |  |  |  | > 100 | > 100 | no inhibition of virus-induced CPE | 
8 | O=C(/C=C/c1ccc(O)c(O)c1)O[C@@H]1C[C@](O)(C(=O)O)C[C@@H](O)[C@H]1O [Chlorogenic acid] |  |  |  |  |  |  |  |  |  |  |  | > 100 | > 100 | no inhibition of virus-induced CPE | 
9 | CCOC(=O)C1=C[C@@H](OC(CC)CC)[C@H](NC(C)=O)[C@@H](N)C1 [Oseltamivir, oseltamivir phosphate, reference compound] | > 100 | > 100 | > 100 | > 100 |  | 86.9 ± 7.8 | 25.4 ± 8.32 | 25.5 ± 8.36 | > 100 |  |  |  |  |  | no effect
